NC(=O)CC[C@H](N)C(=O)O
solubility (mole fraction)
Settings	283.15 K	288.15 K	293.15 K	298.15 K	303.15 K	308.15 K	313.15 K	318.15 K	323.15 K
in 2-butanone	0.00015	0.00017	0.0002	0.000237	0.000271	0.000301	0.000338	0.000373	0.00041
in acetonitrile	3.44e-05	6.77e-05	0.000104	0.000138	0.000164	0.000192	0.000225	0.000254	0.000283
in ethanol	0.000273	0.000304	0.000337	0.000372	0.000408	0.000447	0.000494	0.000522	0.000584
in ethyl acetate	2.94e-05	5.21e-05	0.000138	0.000218	0.000293	0.000362	0.000452	0.00054	0.000653
in isobutanol	5.11e-05	0.000112	0.000163	0.000254	0.000348	0.000442	0.000556	0.000662	0.000798
in methanol	9.5e-05	0.000101	0.000114	0.000134	0.000164	0.000205	0.00025	0.000286	0.000347
in n-butanol	0.000184	0.00023	0.000291	0.00035	0.0004	0.000458	0.000522	0.000574	0.000635
in n-hexane	0.000129	0.000196	0.000263	0.000346	0.000425	0.000494	0.000554	0.000621	0.000681
in n-pentanol	8.57e-05	0.000109	0.000137	0.000163	0.000245	0.000335	0.000448	0.000556	0.000654
in n-propanol	8.13e-05	0.000115	0.000156	0.000189	0.000227	0.000266	0.000321	0.000375	0.000434
in sec-butanol	5.51e-05	0.000106	0.00017	0.000231	0.000281	0.000353	0.00042	0.000501	0.000593
in water	0.00356	0.00409	0.00471	0.00533	0.00595	0.00682	0.00811	0.0097	0.0121

Reference: BigSolDB 2.1
